Experiments:
[1] = target: T1, isolated recombinant JAK2 kinase domain (Homo sapiens, UniProt O60674); assay: JAK enzyme assay, JAK2 kinase domain (Caliper LabChip); type: biochemical; conditions: 0.2 nM JAK2, ATP 25 μM, Morrison tight binding model
T1 construct: isolated recombinant JAK1 and JAK2 kinase domain
How it was run: (§1)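 Ki values were obtained by Morrison tight-binding analysis with ATP-competitive correction, Ki=Ki,app/(1+[ATP]/Km,app). Phosphorylated versus total fluorescent JAK3-derived peptide was quantified on a Caliper LabChip. Kinase reactions with the isolated recombinant domains ran 30 min at 22 °C before EDTA quench (50 mM final).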

[2] = target: T2, isolated recombinant JAK1 kinase domain (Homo sapiens, UniProt P23458); assay: JAK enzyme assay, JAK1 kinase domain (Caliper LabChip); type: biochemical; conditions: 1.5 nM JAK1, ATP 25 μM, Morrison tight binding model
T2 construct: isolated recombinant JAK1 and JAK2 kinase domain
How it was run: as §1

[3] = tested on: JAK1-dependent STAT6 phosphorylation downstream of IL-13 stimulation in BEAS-2B cells; assay: JAK1 pathway assay in cell lines: IL-13 p-STAT6 BEAS-2B; type: cell-based; conditions: BEAS-2B human bronchial epithelial cells, 1 hr compound, IL-13 15 min, MSD readout
How it was run: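 Phospho-STAT6 read by MSD electrochemiluminescence in lysates of BEAS-2B cells kept in complete growth medium. Cells were pretreated 1 hr at 37 °C with compound (0.2% DMSO final) and stimulated 15 min with IL-13 at its EC90; EC50 is the concentration halving signal versus DMSO.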

T2 sequence (P23458 875-1153 limits assumed): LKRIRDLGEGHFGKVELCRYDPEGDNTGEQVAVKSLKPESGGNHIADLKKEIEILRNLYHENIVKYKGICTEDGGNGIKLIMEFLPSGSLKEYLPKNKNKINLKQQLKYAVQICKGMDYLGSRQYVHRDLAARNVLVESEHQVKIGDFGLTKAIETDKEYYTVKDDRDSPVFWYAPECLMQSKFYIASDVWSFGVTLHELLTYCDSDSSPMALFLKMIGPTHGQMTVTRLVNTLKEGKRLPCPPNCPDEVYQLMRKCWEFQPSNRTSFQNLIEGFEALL
T1 sequence (O60674 849-1124 limits assumed): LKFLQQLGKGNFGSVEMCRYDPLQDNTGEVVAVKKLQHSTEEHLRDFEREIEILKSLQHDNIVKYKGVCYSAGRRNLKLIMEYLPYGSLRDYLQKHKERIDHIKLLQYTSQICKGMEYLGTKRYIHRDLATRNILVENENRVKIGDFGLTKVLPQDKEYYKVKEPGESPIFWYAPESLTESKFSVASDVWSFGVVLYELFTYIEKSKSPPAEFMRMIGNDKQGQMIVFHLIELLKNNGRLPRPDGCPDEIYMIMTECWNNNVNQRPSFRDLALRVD

CCc1cnn(C2(CC#N)CN(c3cccn4nc(Nc5cnn(CCO)c5)nc34)C2)c1 [Example 133, 2-[3-(4-ethylpyrazol-1-yl)-1-[2-[[1-(2-hydroxyethyl)pyrazol-4-yl]amino]-[1,2,4]triazolo[1,5-a]pyridin-8-yl]azetidin-3-yl]acetonitrile]
Ki [1]: 0.3 nM
Ki [2]: 0.3 nM
EC50 [3]: 12 nM

From US20230242530A1, “8-(AZETIDIN-1-YL)-[1,2,4]TRIAZOLO[1,5-A]PYRIDINYL COMPOUNDS, COMPOSITIONS AND METHODS OF USE THEREOF” (Genentech, Inc., priority 2016, published 2023)
